# Source: publication PMC5756575, “In Vitro Biotransformation, Safety, and Chemopreventive Action of Novel 8-Methoxy-Purine-2,6-Dione Derivatives” (Applied Biochemistry and Biotechnology, 2017)
# Columns and labels:
# [1] = system: Salmonella typhimurium TA100; test: Ames mutagenicity test; assay type: cell-based
# Method: From them, 0.2 mM working solutions were prepared by dilution with water. […]
# (§1) In the Ames test, Salmonella typhimurium TA100 strain was used. This strain has a base-pair substitution that can be reverted by mutations at GC pairs. In addition, it contains mutations at uvrB-bio and rfa genes to eliminate excision repair mechanisms and to make the bacteria more permeable to chemicals, respectively. Finally, TA100 also includes pKM101 plasmid, which enhances both chemical and UV-induced mutagenesis via an increase in the error-prone recombinational DNA repair pathway. TA100 strain of S. typhimurium was provided by Dr. T. Nohmi (Division of Genetics and Mutagenesis, National Institute of Hygienic Sciences, Tokyo, Japan). V. harveyi and S. typhimurium bacterial cultures were maintained at 30 and 37 °C, respectively.
# It causes point mutations at the genome as it induces G:C → A:T transitions in Vibrio harveyi strains and in other bacteria such as Escherichia coli and S. typhimurium. […]
# S. typhimurium was cultivated in a fresh medium 12 h prior to a test. To perform mutagenicity assay, 100 μL of an overnight culture (containing approx. 1 × 10^8 to 2 × 10^8 bacteria) were inoculated along with 50 μL of a tested compound in 2 mL of top agar supplemented with traces of histidine and of biotin. Then the mixture was added over the surface of GM agar plates and was left incubating 48 h at 37 °C. Afterwards, the colonies were counted manually.
# Vibrio harveyi BB7XM = test: Vibrio harveyi mutagenicity assay, BB7XM; assay type: cell-based; details: 40 ng/mL; for MI (mutagenicity index): mutagenic if MI above 2.0; for Number of revertants per plate, Mean ± SD: mutagenicity
# Method: From them, 0.2 mM working solutions were prepared by dilution with water. […] Working solutions were prepared by 1:100 dilution of stock solution in water, and final compound concentration assayed was 40 ng/mL.
# (§2) Four Vibrio harveyi strains were used in this study: a wild-type BB7 (naturally found in the Baltic Sea) and three genetically modified strains, namely BB7M (obtained by the introduction of pAB1273 plasmid containing the genes mucA and mucB to enhance the error-prone DNA repair), BB7X (hypersensitive to UV radiation after genetic modification with Tn5TpMCS), and BB7XM (containing the two abovementioned modifications). These strains were kindly provided by Prof. G. Węgrzyn (Department of Molecular Biology, University of Gdańsk, Poland).
# (§3) It causes point mutations at the genome as it induces G:C → A:T transitions in Vibrio harveyi strains and in other bacteria such as Escherichia coli and S. typhimurium. […] Next, its working solution was prepared in sterile water, being 40 ng/mL its final concentration.
# To perform the V. harveyi mutagenicity test, 10 μL of a working solution of the tested compound (100 μg/mL) were added to V. harveyi bacterial culture (OD600 = 0.1) in NaCl-containing BOSS liquid medium, being 40 ng/mL the final concentration of the tested compound. […] Then, an inoculum containing 5 × 10^6 cells was added to solid BOSS agar plate supplemented with neomycin sulfate at a final concentration of 100 μg/mL. Samples were left incubating 48 h at 30 °C, and revertant colonies were counted manually.
# [2] = system: Cunninghamella blakesleeana 1908 DMS; test: Cunninghamella biotransformation assay, C. blakesleeana; assay type: in vitro ADME; details: 7-day incubation; for % of compound/metabolite in C. blakesleeana: 0.5 mg/mL, LC-MS/MS; for % of tested (parental) compound metabolized at the end of experiment: C. blakesleeana
# Method: (§4) Three different strains of Cunninghamella were used: Cunninghamella echinulata NRRL 1384, Cunninghamella blakesleeana 1908 DMS, and Cunninghamella elegans 1906 DMS. The first was provided by Dr. A.J. Carnell (University of Liverpool, UK), whereas the two remaining were purchased from Deutsche Sammlung von Mikroorganismen und Zellkulturen GmbH (DMSZ, Braunschweig, Germany).
# (§5) Cunninghamella strains were cultivated on solid potato dextrose agar (PDA) plates at 28 °C. After 4 days, a liquid fermentation basal medium was prepared by the addition of 6 g of D-glucose, 1.5 g of NaCl, 1.5 g of yeast extract from Saccharomyces cerevisiae, and 1.5 g of K2HPO4 to 300 mL of distilled water. Aliquots of 24.5 mL of medium were inoculated with 300 μL of suspension of fungal spores obtained after wetting colonies in PDA. The fungi were incubated with shaking until the formation of spherical clumps.
# (§6) Compounds 2–4 were evaluated in this experiment. Once microorganisms formed spherical clumps in the preliminary incubation, the corresponding tested compound was added to the broth and the mixture was incubated for 7 days. Two control experiments were also performed, in the absence of compound and fungus, respectively. Biotransformation progress was monitored by TLC and by liquid chromatography electrospray ionization-tandem mass spectrometry (LC-MS/MS). Monitoring was performed at four different incubation times: 30 min, 3 days, 5 days, and 7 days.
# (§7) To analyze metabolites in LC-MS/MS, an aliquot of 500 μL of filtered sample was taken and extracted with 500 μL of dichloromethane. The organic fraction was dried with sodium sulfate, filtered, and evaporated. The obtained residue was analyzed in LC-MS/MS. At the end of experiment, all the remaining medium was extracted with 25 mL of dichloromethane after separating the fungal clumps by filtration over cellulose filters.
# (§8) Agilent 1100 HPLC system (Agilent Technologies, Waldbronn, Germany) equipped with a Xbridge™ C18 analytical column (2.1 × 30 mm, […]; Waters, Dublin, Ireland) was used in the chromatographic separation of LC-MS/MS analysis. An elution gradient of acetonitrile and water, with 0.1% of formic acid, was used as a mobile phase. MS spectra were taken at Applied Biosystems MDS Sciex API 200 triple quadrupole mass analyzer (Concord, Ontario, Canada) with an electrospray ionization (ESI) interface between HPLC and MS.
# [3] = system: Cunninghamella elegans 1906 DMS; test: Cunninghamella biotransformation assay, C. elegans; assay type: in vitro ADME; details: 7-day incubation; for % of compound/metabolite in C. elegans: 0.5 mg/mL, LC-MS/MS; for % of tested (parental) compound metabolized at the end of experiment: C. elegans
# Method: as §4, §5, §6, §7, §8
# Cunninghamella strains = test: Cunninghamella biotransformation assay, three strains together and blank without fungus; assay type: in vitro ADME; details: blank: control in the absence of fungus, 7-day incubation
# Method: as §4, §5, §6, §7
# Agilent 1100 HPLC system (Agilent Technologies, Waldbronn, Germany) equipped with a Xbridge™ C18 analytical column (2.1 × 30 mm, […]; Waters, Dublin, Ireland) was used in the chromatographic separation of LC-MS/MS analysis. […]
# Vibrio harveyi BB7M = test: Vibrio harveyi antimutagenicity assay against NQNO, BB7M; assay type: cell-based; details: compound 40 ng/mL + NQNO 40 ng/mL; for Number of revertants per plate, Mean ± SD: antimutagenicity, NQNO line = NQNO as a single compound
# From the text: as §2, §3
# (§9) Procedure followed in the V. harveyi antimutagenicity assay was similar to the mutagenicity method described before. […] The results were expressed as the inhibition percentage of mutagenic effect, which was calculated with the formula: 100 − [(R 1/R 2) × 100], where R 1 is the number of revertants per plate in the presence of both mutagen and tested substance, and R 2 is the number of revertants per plate in the presence of mutagen. […] S. typhimurium antimutagenicity assay was based on similar assumptions as the V. harveyi antimutagenicity test. In this case, the chemopreventive activity was determined at two concentrations of a tested compounds and a standard mutagen, i.e., 40 and 500 ng/mL.
# [4] = system: Salmonella typhimurium TA100; test: S. typhimurium antimutagenicity assay against NQNO; assay type: cell-based; details: for Number of revertants per plate, Mean ± SD: antimutagenicity, NQNO line = NQNO as a single compound
# From the text: as §1, §3, §9
# [5] = TA100, 40 ng/mL, mutagenic if MI >2.0
# [6] = TA100, 500 ng/mL (NQNO control stated as 40 ng/mL in method)
# [7] = TA100, compound and NQNO 40 ng/mL
# [8] = TA100, compound and NQNO 500 ng/mL
structure (smiles),measurement,setting,value
"COc1nc2c(c(=O)n(C)c(=O)n2C)n1CCCC(=O)NCc1ccccc1 [Compound 3, N-benzyl-4-(8-methoxy-1,3-dimethyl-2,6-dioxo-purin-7-yl)butanamide]","Number of revertants per plate, Mean ± SD","[1]; TA100, 40 ng/mL",53 ± 11
same,MI (mutagenicity index),[1]; [5],1.5
same,MI (mutagenicity index),[1]; [6],0.2
same,"Number of revertants per plate, Mean ± SD",[1]; [6],6 ± 3
same,MI (mutagenicity index),Vibrio harveyi BB7XM,1.1
same,"Number of revertants per plate, Mean ± SD",Vibrio harveyi BB7XM,35 ± 7
same,% of compound/metabolite in C. blakesleeana,[2],95.4%
same,% of tested (parental) compound metabolized at the end of experiment,[2],4.6%
same,% of compound/metabolite in C. elegans,[3],99.4%
same,% of tested (parental) compound metabolized at the end of experiment,[3],0.6%
same,% of compound/metabolite in blank,Cunninghamella strains,100.0%
same,"Number of revertants per plate, Mean ± SD",Vibrio harveyi BB7M,48 ± 8
same,% inhibition of NQNO mutagenicity,Vibrio harveyi BB7M,50%
same,% inhibition of NQNO mutagenicity,[4]; [7],96%
same,% inhibition of NQNO mutagenicity,[4]; [8],92%
same,"Number of revertants per plate, Mean ± SD",[4]; [7],4 ± 2
same,"Number of revertants per plate, Mean ± SD",[4]; [8],8 ± 3
"COc1nc2c(c(=O)n(C)c(=O)n2C)n1CCCC(=O)N1CCN(c2ccccc2)CC1 [Compound 4, 8-methoxy-1,3-dimethyl-7-[4-oxo-4-(4-phenylpiperazin-1-yl)butyl]purine-2,6-dione]","Number of revertants per plate, Mean ± SD","[1]; TA100, 40 ng/mL",48 ± 7
same,MI (mutagenicity index),[1]; [5],1.3
same,MI (mutagenicity index),[1]; [6],0.4
same,"Number of revertants per plate, Mean ± SD",[1]; [6],10 ± 1
same,MI (mutagenicity index),Vibrio harveyi BB7XM,1.2
same,"Number of revertants per plate, Mean ± SD",Vibrio harveyi BB7XM,41 ± 9
same,% of compound/metabolite in C. blakesleeana,[2],33.3%
same,% of tested (parental) compound metabolized at the end of experiment,[2],66.6%
same,% of compound/metabolite in C. elegans,[3],47.0%
same,% of tested (parental) compound metabolized at the end of experiment,[3],53.0%
same,% of compound/metabolite in blank,Cunninghamella strains,100.0%
same,"Number of revertants per plate, Mean ± SD",Vibrio harveyi BB7M,50 ± 9
same,% inhibition of NQNO mutagenicity,Vibrio harveyi BB7M,49%
same,% inhibition of NQNO mutagenicity,[4]; [7],93%
same,% inhibition of NQNO mutagenicity,[4]; [8],88%
same,"Number of revertants per plate, Mean ± SD",[4]; [7],6 ± 2
same,"Number of revertants per plate, Mean ± SD",[4]; [8],11 ± 3
